Data: ChEMBL document CHEMBL1148879, “1,4-Dihydroindeno[1,2-c]pyrazoles as potent checkpoint kinase 1 inhibitors: extended exploration on phenyl ring substitutions and preliminary ADME/PK studies” (Bioorg Med Chem Lett, 2007)

Key:
[1] = target: T1, Serine/threonine-protein kinase Chk1 (Homo sapiens, UniProt O14757); assay: Inhibition of recombinant CHK-mediated Cdc25C phosphorylation after 30 mins
T1 sequence (O14757 whole entry): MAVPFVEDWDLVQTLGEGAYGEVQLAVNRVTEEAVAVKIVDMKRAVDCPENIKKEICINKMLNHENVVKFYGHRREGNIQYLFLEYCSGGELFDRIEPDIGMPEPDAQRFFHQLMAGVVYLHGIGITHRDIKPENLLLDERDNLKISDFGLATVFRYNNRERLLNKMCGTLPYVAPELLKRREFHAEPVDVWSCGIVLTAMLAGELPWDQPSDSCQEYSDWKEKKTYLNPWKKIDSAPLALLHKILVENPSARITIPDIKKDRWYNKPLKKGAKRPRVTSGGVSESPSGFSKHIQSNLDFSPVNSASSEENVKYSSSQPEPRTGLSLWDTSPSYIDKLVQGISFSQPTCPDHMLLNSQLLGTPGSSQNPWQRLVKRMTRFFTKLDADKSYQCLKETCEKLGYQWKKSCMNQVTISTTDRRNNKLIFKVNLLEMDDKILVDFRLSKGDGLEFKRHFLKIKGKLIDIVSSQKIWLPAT

HeLa = assay: cells; conditions: Homo sapiens
Description: Antiproliferative activity against human HeLa cells by MTS assay

[2] = Antiproliferative activity against human H1299 cells by FACS assay; assay type: functional, cell-based; conditions: NCI-H1299
[3] = Plasma clearance in mouse at 3 mg/kg, iv; assay type: ADME, organism-based; design: dose 3 mg/kg, route intravenous
[4] = Volume of distribution in mouse at 3 mg/kg, iv; assay type: ADME, organism-based; design: dose 3 mg/kg, route intravenous; conditions: in vivo, read-out: Vdss
[5] = Half life in mouse at 3 mg/kg, iv; assay type: ADME, organism-based; design: dose 3 mg/kg, route intravenous; conditions: in vivo
[6] = (§1) AUC in mouse at 3 mg/kg, iv; assay type: ADME, organism-based, Plasma; design: dose 3 mg/kg, route intravenous; conditions: plasma
[7] = Cmax in mouse at 10 mg/kg, ip; assay type: ADME, organism-based; design: dose 10 mg/kg, route intraperitoneal; conditions: in vivo
[8] = AUC in mouse at 10 mg/kg, ip; assay type: ADME, organism-based; design: dose 10 mg/kg, route intraperitoneal; conditions: plasma
[9] = Cmax in mouse at 10 mg/kg, po; assay type: ADME, organism-based; design: dose 10 mg/kg, route oral; conditions: in vivo
[10] = Oral bioavailability in mouse at 10 mg/kg; assay type: ADME, organism-based; conditions: in vivo
Mus musculus = assay: as §1; assay type: ADME, organism-based, Plasma; design: dose 3 mg/kg, route intravenous; conditions: in vivo
[11] = AUC in mouse at 10 mg/kg, po; assay type: ADME, organism-based; design: dose 10 mg/kg, route oral; conditions: plasma
[12] = Metabolic stability in rat liver microsomes assessed as half life at 1 uM; assay type: ADME, Microsome
[13] = Apparent permeability across human Caco-2 cells at 1 uM; assay type: ADME, cell-based
[14] = Metabolic stability in rat liver microsome assessed as […] at 1 uM; assay type: ADME; conditions: liver microsomes, read-out: Activity (converted)
[15] = Metabolic stability in rat liver microsomes assessed as compound remaining at 1 uM after 30 mins; assay type: ADME, Microsome; conditions: read-out: Stability
[16] = Aqueous solubility at neutral pH; assay type: physicochemical; conditions: buffer

| SMILES | IC50 [1] | EC50 (HeLa) | EC50 [2] | other results |
| --- | --- | --- | --- | --- |
| OCc1cccc2c1Cc1c(-c3ccc(-c4ccc(O)cc4)cc3)n[nH]c1-2 | 7.8 nM | > 59000 nM | – | – |
| O=C(N[C@H]1CC[C@H](O)CC1)c1cccc2c1Cc1c(-c3ccc(-c4ccc(O)cc4)cc3)n[nH]c1-2 | > 10000 nM | – | – | – |
| O=C(NCCO)c1ccc2c(c1)-c1[nH]nc(-c3ccc(-c4ccc(O)cc4)cc3)c1C2 | 5 nM | – | – | – |
| O=C(c1ccc2c(c1)-c1[nH]nc(-c3ccc(-c4ccc(O)cc4)cc3)c1C2)N1CCOCC1 | 91 nM | – | – | – |
| COc1cc2c(cc1CNCCO)Cc1c(-c3ccc(-c4ccc(O)cc4)cc3)n[nH]c1-2 | 0.43 nM | – | – | – |
| COc1cc2c(cc1C(=O)N[C@H]1CC[C@H](O)CC1)C(C)(C)c1c(-c3ccc(-c4ccc(O)cc4)cc3)n[nH]c1-2 | 18 nM | 8600 nM | > 10000 nM | – |
| COc1cc2c(cc1C(=O)NCc1ccccn1)Cc1c(-c3ccc(-c4ccc(O)c(F)c4)cc3)n[nH]c1-2 | 27 nM | – | – | clearance [3]: 60 mL/min/kg; Vd [4]: 2.4 L/kg; half-life [5]: 27.6 min; AUC [6]: 1700 ng·h/mL; Cmax [7]: 2800 nM; AUC [8]: 3800 ng·h/mL; Cmax [9]: < 50 nM; bioavailability [10]: 0% |
| COc1cc2c(cc1CN1CCN(C)CC1)Cc1c(-c3ccc(-c4ccc(O)c(C#N)c4)cc3)n[nH]c1-2 | > 10000 nM | – | – | – |
| COc1cc2c(cc1CN1CCC(O)CC1)Cc1c(-c3ccc(-c4ccc(O)cc4)cc3)n[nH]c1-2 | 1.1 nM | – | – | – |
| O=C(CNCc1ccncc1)Nc1ccc2c(c1)Cc1c(-c3ccc(-c4ccc(O)cc4)cc3)n[nH]c1-2 | 6.4 nM | – | – | – |
| O=C(CN[C@H]1CC[C@H](O)CC1)Nc1ccc2c(c1)Cc1c(-c3ccc(-c4ccc(O)cc4)cc3)n[nH]c1-2 | 1.2 nM | > 59000 nM | > 10000 nM | – |
| COc1cc2c(cc1C(=O)NCCN1CCCC1)Cc1c(-c3ccc(-c4ccc(O)cc4)cc3)n[nH]c1-2 | 0.83 nM | – | – | – |
| COc1cc2c(cc1CN[C@H]1CC[C@H](O)CC1)Cc1c(-c3ccc(-c4ccc(O)cc4)cc3)n[nH]c1-2 | 0.56 nM | 620 nM | 3100 nM | – |
| Oc1ccc(-c2ccc(-c3n[nH]c4c3Cc3cc(O)ccc3-4)cc2)cc1 | 4.4 nM | – | – | – |
| OCc1ccc2c(c1)Cc1c(-c3ccc(-c4ccc(O)cc4)cc3)n[nH]c1-2 | 7.7 nM | > 59000 nM | – | – |
| CCCCNCC(=O)Nc1ccc2c(c1)Cc1c(-c3ccc(-c4ccc(O)cc4)cc3)n[nH]c1-2 | 2.1 nM | 1700 nM | > 10000 nM | – |
| CC(C)(C)CNCc1cccc2c1Cc1c(-c3ccc(-c4ccc(O)cc4)cc3)n[nH]c1-2 | 209 nM | – | – | – |
| Oc1ccc(-c2ccc(-c3[nH]nc4c3Cc3cccc(O)c3-4)cc2)cc1 | 671 nM | – | – | – |
| O=C(NCc1ccccc1)c1cccc2c1Cc1c(-c3ccc(-c4ccc(O)cc4)cc3)n[nH]c1-2 | > 10000 nM | – | – | – |
| COc1cc2c(cc1CN1CCN(C)CC1)Cc1c(-c3ccc(-c4ccc(O)cc4)cc3)n[nH]c1-2 | 0.51 nM | – | – | – |
| Oc1ccc(-c2ccc(-c3n[nH]c4c3Cc3ccccc3-4)cc2)cc1 | 1370 nM | – | – | – |
| COc1cc2c(cc1C(=O)N[C@H]1CC[C@H](O)CC1)Cc1c(-c3ccc(-c4ccc(O)cc4)cc3)n[nH]c1-2 | 0.24 nM | 38000 nM | > 10000 nM | clearance [3]: 183 mL/min/kg; Vd [4]: 6 L/kg; half-life [5]: 23.4 min; AUC [6]: 570 ng·h/mL; Cmax [7]: 1500 nM; AUC [8]: 4200 ng·h/mL; Cmax [9]: < 100 nM; bioavailability [10]: 0% |
| COc1cc2c(cc1C(=O)N1CCN(C)CC1)Cc1c(-c3ccc(-c4ccc(O)cc4)cc3)n[nH]c1-2 | 2.3 nM | – | – | – |

Now from value to compound, other results behind:

| IC50 [1] | EC50 (HeLa) | SMILES | EC50 [2] | other results |
| --- | --- | --- | --- | --- |
| 5.5 nM | – | CC(=O)Nc1cccc2c1Cc1c(-c3ccc(-c4ccc(O)cc4)cc3)n[nH]c1-2 | – | – |
| 4.4 nM | > 59000 nM | OCc1ccc2c(c1)-c1[nH]nc(-c3ccc(-c4ccc(O)cc4)cc3)c1C2 | > 10000 nM | – |
| 2.3 nM | – | CNC(=O)c1ccc2c(c1)-c1[nH]nc(-c3ccc(-c4ccc(O)cc4)cc3)c1C2 | – | – |
| 0.55 nM | – | COc1cc2c(cc1C(=O)N1CCOCC1)Cc1c(-c3ccc(-c4ccc(O)cc4)cc3)n[nH]c1-2 | – | – |
| 0.21 nM | 910 nM | COc1cc2c(cc1CNCCN1CCCC1)Cc1c(-c3ccc(-c4ccc(O)cc4)cc3)n[nH]c1-2 | 5100 nM | – |
| 9090 nM | – | COc1cc2c(cc1C(=O)NCc1ccccn1)Cc1c(-c3ccc(-c4ccc(O)c(C#N)c4)cc3)n[nH]c1-2 | – | – |
| 28 nM | – | COc1cc2c(cc1CN1CCN(C)CC1)Cc1c(-c3ccc(-c4ccc(O)c(F)c4)cc3)n[nH]c1-2 | – | Vd [4]: 9.2 L/kg; half-life [5]: 36 min; AUC (Mus musculus): 690 ng·h/mL; Cmax [7]: 1300 nM; AUC [8]: 1600 ng·h/mL; Cmax [9]: 80 nM; AUC [11]: 130 ng·h/mL; bioavailability [10]: 6% |
| – | 23000 nM | O=C(NCc1ccccn1)c1ccc2c(c1)Cc1c(-c3ccc(-c4ccc(O)cc4)cc3)n[nH]c1-2 | > 10000 nM | Vd [4]: 4.7 L/kg; half-life [5]: 36 min; AUC (Mus musculus): 1200 ng·h/mL; Cmax [7]: 2000 nM; AUC [8]: 4400 ng·h/mL; Cmax [9]: 250 nM; AUC [11]: 160 ng·h/mL; bioavailability [10]: 4%; half-life at 1 µM [12]: 25 min; Papp at 1 µM [13]: 13.3 ×10⁻⁶ cm/s; k el at 1 µM [14]: 0.00049 s⁻¹; remaining at 0.5 h, 1 µM [15]: 40%; solubility [16]: < 0.03 µg/mL |
| 0.74 nM | > 59000 nM | O=C(CNCCO)Nc1ccc2c(c1)Cc1c(-c3ccc(-c4ccc(O)cc4)cc3)n[nH]c1-2 | > 10000 nM | – |
| 34 nM | – | CC(C)(C)NCc1ccc2c(c1)-c1[nH]nc(-c3ccc(-c4ccc(O)cc4)cc3)c1C2 | – | – |
| 12 nM | – | OCCNCc1ccc2c(c1)-c1[nH]nc(-c3ccc(-c4ccc(O)cc4)cc3)c1C2 | – | – |
| 5.2 nM | > 59000 nM | CN(C)CCNCc1ccc2c(c1)-c1[nH]nc(-c3ccc(-c4ccc(O)cc4)cc3)c1C2 | > 10000 nM | – |
| 0.24 nM | 1400 nM | COc1cc2c(cc1C(=O)N1CCC(O)CC1)Cc1c(-c3ccc(-c4ccc(O)cc4)cc3)n[nH]c1-2 | 5200 nM | – |
| 7.1 nM | 2800 nM | Oc1ccc(-c2ccc(-c3n[nH]c4c3Cc3ccc(CNCCN5CCCC5)cc3-4)cc2)cc1 | – | – |
| 24 nM | 1700 nM | CN1CCN(Cc2ccc3c(c2)Cc2c(-c4ccc(-c5ccc(O)cc5)cc4)n[nH]c2-3)CC1 | > 10000 nM | Vd [4]: 3.4 L/kg; half-life [5]: 30 min; AUC (Mus musculus): 1500 ng·h/mL; Cmax [7]: 1100 nM; AUC [8]: 2700 ng·h/mL; Cmax [9]: 90 nM; AUC [11]: 450 ng·h/mL; bioavailability [10]: 9%; solubility [16]: < 0.03 µg/mL |
